The subject of the experiment is small (about 50 μm-about 90 μm) arterioles of the cremaster muscle. Details: species or system male Sprague-Dawley rats. As to conditions: rat, in vivo.

Molecules are shown by their SMILES.

As to `CC[N+](CC)(CC)CCOc1cccc(OCC[N+](CC)(CC)CC)c1OCC[N+](CC)(CC)CC` [gallamine triethiodide], the “effect on microvessel diameter” value is “Significant vasoconstriction” and the “vasodilation over time (time-dependent effects control)” value is given as “No vasodilation”.

Values taken from patent publication US20110142882A1 (priority 2009, published 2011).
